Tests used:
[1] = test system: mitochondrial transcription (7S RNA) in HeLa cells; test: Quantitative real time-PCR assay of inhibition of mitochondrial transcription (cellular qPCR assay IMT); type: cell-based; settings: Homo sapiens, 4 h compound incubation, qRT-PCR according to Example 5, activity class
Description: Quantitative real-time PCR (qRT-PCR), based on the TagMan™ (Thermo Fisher Scientific, Waltham Mass.) technology, was carried out essentially as described in (Heid et al., 1996). HeLa cells were plated one day before compound treatment in RPMI medium supplemented with 10% Fetal Calf Serum and 2 mM L-glutamine. Cells were incubated with dilution series of compounds or vehicle (DMSO) for 4 h, prior to harvest and extraction of the RNA using the RNeasy Mini Kit (Qiagen, Hilden D), according to the manufacturer's instructions. RNA concentrations were measured spectroscopically, using a NanoDrop-2000 (Thermo Fisher Scientific, Waltham Mass.) and normalized prior to cDNA synthesis, using a ‘High-Capacity cDNA Reverse Transcription Kit’ (Thermo Fisher Scientific, Waltham Mass.). qRT-PCR was carried out using the ‘TaqMan Fast Advance Master Mix’ (Thermo Fisher Scientific, Waltham Mass.) on a 7500 Fast Real-Time PCR machine (Applied Biosystems, Foster City Calif.)
For these measurements, three genes were used to compare the effect of the scrutinized compounds in relation to their concentration. The POLRMT-gene was used to detect potential influences on nuclear transcription. Mitochondrial transcription in vivo was monitored by measurements 7S RNA. The TBP (TATA-box binding protein) gene was employed as the control (housekeeping gene) during qRT-PCR. The short-lived mitochondrial 7S RNA, which is not post-transcriptionally stabilized, allowed us to monitor rapid changes in mitochondrial transcription activity following compound addition. Biological triplicates were analyzed using the comparative CT Method (ΔΔCt) method (Bubner and Baldwin, 2004) and reported as Rq % values (Rq=Relative quantification=2-ΔΔCt).

[2] = molecular target: mitochondrial RNA-polymerase (POLRMT) (Mus musculus, UniProt Q8BKF1); test: Homogeneous TR-FRET assay for mitochondrial transcription activity; type: biochemical; settings: homogeneous TR-FRET assay according to Example 4; activity class
mitochondrial RNA-polymerase (POLRMT), sequence (Q8BKF1 42-1207): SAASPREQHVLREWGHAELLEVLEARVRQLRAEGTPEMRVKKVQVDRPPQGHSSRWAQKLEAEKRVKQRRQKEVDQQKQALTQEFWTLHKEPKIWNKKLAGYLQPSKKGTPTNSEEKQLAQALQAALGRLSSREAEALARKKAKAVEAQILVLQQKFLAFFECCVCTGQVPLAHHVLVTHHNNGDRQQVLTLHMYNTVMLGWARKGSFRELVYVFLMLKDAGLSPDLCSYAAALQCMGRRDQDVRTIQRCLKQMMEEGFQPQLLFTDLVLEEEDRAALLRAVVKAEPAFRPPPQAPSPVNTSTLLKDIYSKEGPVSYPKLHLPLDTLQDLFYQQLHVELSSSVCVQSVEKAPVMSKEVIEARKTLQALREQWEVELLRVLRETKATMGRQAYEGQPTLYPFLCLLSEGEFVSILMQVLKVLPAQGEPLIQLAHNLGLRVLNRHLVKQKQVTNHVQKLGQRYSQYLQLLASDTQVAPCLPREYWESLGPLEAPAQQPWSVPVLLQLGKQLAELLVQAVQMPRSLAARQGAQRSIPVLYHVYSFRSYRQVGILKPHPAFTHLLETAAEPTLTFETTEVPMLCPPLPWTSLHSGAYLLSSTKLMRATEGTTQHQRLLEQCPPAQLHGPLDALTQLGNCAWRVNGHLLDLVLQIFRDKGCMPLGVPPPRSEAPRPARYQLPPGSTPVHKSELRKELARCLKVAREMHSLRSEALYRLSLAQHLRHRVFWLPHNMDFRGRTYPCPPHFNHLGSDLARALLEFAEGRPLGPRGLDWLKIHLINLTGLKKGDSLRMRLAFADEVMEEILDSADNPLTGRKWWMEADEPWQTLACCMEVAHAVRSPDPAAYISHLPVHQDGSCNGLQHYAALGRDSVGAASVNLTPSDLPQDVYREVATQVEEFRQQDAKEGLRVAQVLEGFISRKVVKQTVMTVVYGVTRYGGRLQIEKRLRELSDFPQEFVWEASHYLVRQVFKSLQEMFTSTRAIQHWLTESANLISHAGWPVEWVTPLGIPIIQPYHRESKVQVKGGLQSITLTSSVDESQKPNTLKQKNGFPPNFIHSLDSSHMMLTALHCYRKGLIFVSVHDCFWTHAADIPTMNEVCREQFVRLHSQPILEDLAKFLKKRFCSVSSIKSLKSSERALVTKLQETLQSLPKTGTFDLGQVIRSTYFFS
Summary of the method: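 Mouse POLRMT, TFAM and TFB2M with linearized pUC-LSP template in 10 mM Tris-HCl pH 7.5, 10 mM MgCl2, 40 mM NaCl; compounds at 10 μM or serial dilution, 10 min RT preincubation. Started with 500 μM each […], 2 h RT; 407 bp RNA product detected by hybridized Eu-cryptate/ATTO647N probe TR-FRET (ex 340, em 665 nm).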

Structure (SMILES)	IC50 [1] [nM]	IC50 [2] [nM]
Cc1ccccc1-c1cc(=O)oc2cc(OC(C)C(=O)N3CCC[C@H](C(=O)N(C)C)C3)ccc12 (stereo partly drawn) [Compound 84, (3S)-N,N-dimethyl-1-[2-[4-(o-tolyl)-2-oxo-chromen-7-yl]oxypropanoyl]piperidine-3-carboxamide]	10 to 50	20 to 100
CC(Oc1ccc2c(-c3ccccc3Cl)cc(=O)oc2n1)C(=O)N1CCC[C@H](C(=O)O)C1 (mixture of isomers) [Compound 170, rac-(3S)-1-[2-[4-(2-chlorophenyl)-2-oxo-pyrano[2,3-b]pyridin-7-yl]oxypropanoyl]piperidine-3-carboxylic acid]	50 to 500	20 to 100
CC(C)NC(=O)C(C)(C)Oc1ccc2c(-c3ccccc3Cl)cc(=O)oc2c1 [Compound 114, 2-[4-(2-chlorophenyl)-2-oxo-chromen-7-yl]oxy-N-isopropyl-2-methyl-propanamide]	10 to 50	100 to 1000
Cc1ccccc1-c1cc(=O)oc2cc(OC(C)C(=O)N3CCCC(c4nn[nH]n4)C3)ccc12 (stereo not drawn) [Compound 42, 7-((1-(3-(2H-tetrazol-5-yl)piperidin-1-yl)-1-oxopropan-2-yl)oxy)-4-(o-tolyl)-2H-chromen-2-one]	10 to 50	< 20
CC(C)NC(=O)[C@@H](C)Oc1ccc2c(-c3ccccc3Cl)cc(=O)oc2c1 [Compound 56, (2R)-2-[4-(2-chlorophenyl)-2-oxo-chromen-7-yl]oxy-N-isopropyl-propanamide]	< 10	20 to 100
CC(C)NC(=O)C(C)Oc1ccc2c(-c3ccccc3Cl)cc(=O)oc2c1 (stereo not drawn) [Compound 70, 2-[4-(2-chlorophenyl)-2-oxo-chromen-7-yl]oxy-N-isopropyl-propanamide]	< 10	20 to 100
CC(C)OC(=O)OCOC(=O)C[C@H]1CCCN(C(=O)[C@@H](C)Oc2ccc3c(-c4ccc(F)cc4Cl)cc(=O)oc3c2)C1 [Compound 127, isopropoxycarbonyloxymethyl 2-[(3R)-1-[(2R)-2-[4-(2-chloro-4-fluoro-phenyl)-2-oxo-chromen-7-yl]oxypropanoyl]-3-piperidyl]acetate]	< 10	20 to 100
COC(=O)CC1CCN(C(=O)C(C)Oc2ccc3c(-c4ccccc4Cl)cc(=O)oc3c2)CC1 (stereo not drawn) [Compound 80, methyl 2-[1-[2-[4-(2-chlorophenyl)-2-oxo-chromen-7-yl]oxypropanoyl]-4-piperidyl]acetate]	50 to 500	20 to 100
Cc1ccccc1-c1cc(=O)oc2cc(OC(C)C(=O)N3CCCC(S(N)(=O)=O)C3)ccc12 (stereo not drawn) [Compound 12, 1-[2-[4-(o-tolyl)-2-oxo-chromen-7-yl]oxypropanoyl]piperidine-3-sulfonamide]	< 10	< 20
CC(C)OC(=O)C(C)Oc1ccc2c(-c3ccccc3Br)cc(=O)oc2c1 (stereo not drawn) [Compound 92, isopropyl 2-[4-(2-bromophenyl)-2-oxo-chromen-7-yl]oxypropanoate]	< 10	20 to 100
Cc1ccccc1-c1cc(=O)oc2cc(O[C@H](C)C(=O)NC(C)C)ccc12 [Compound 36, (2R)-N-isopropyl-2-[4-(o-tolyl)-2-oxo-chromen-7-yl]oxy-propanamide]	< 10	< 20
CCC(=O)N1CCN(C(=O)[C@@H](C)Oc2ccc3c(-c4ccc(F)cc4Cl)cc(=O)oc3c2)CC1 [Compound 168, 4-(2-chloro-4-fluoro-phenyl)-7-[(1R)-1-methyl-2-oxo-2-(4-propanoylpiperazin-1-yl)ethoxy]chromen-2-one]	< 10	< 20
Cc1ccsc1-c1cc(=O)oc2cc(O[C@H](C)C(=O)NC(C)C)ccc12 [Compound 178, (2R)-N-isopropyl-2-[4-(3-methyl-2-thienyl)-2-oxo-chromen-7-yl]oxy-propanamide]	10 to 50	100 to 1000
CCCCCCCOC(=O)[C@H]1CCCN(C(=O)[C@@H](C)Oc2ccc3c(-c4ccc(F)cc4Cl)cc(=O)oc3c2)C1 [Compound 120, heptyl (3S)-1-[(2R)-2-[4-(2-chloro-4-fluoro-phenyl)-2-oxo-chromen-7-yl]oxypropanoyl] piperidine-3-carboxylate]	< 10	100 to 1000
C[C@@H](Oc1ccc2c(-c3ccc(F)cc3Cl)cc(=O)oc2c1)C(=O)N1CCC[C@H](CC(=O)O)C1 [Compound 106, 2-[(3R)-1-[(2R)-2-[4-(2-chloro-4-fluoro-phenyl)-2-oxo-chromen-7-yl]oxypropanoyl]-3-piperidyl]acetic acid]	< 10	< 20
C[C@@H](Oc1ccc2c(-c3ccc(F)cc3Cl)cc(=O)oc2c1)C(=O)N1CCC[C@H](CC(=O)OCCN2CCOCC2)C1 [Compound 125]	< 10	< 20
Cc1ccsc1-c1cc(=O)oc2cc(O[C@H](C)C(=O)N3CCCCC3)ccc12 [Compound 177, 7-[(1R)-1-methyl-2-oxo-2-(1-piperidyl)ethoxy]-4-(3-methyl-2-thienyl)chromen-2-one]	< 10	20 to 100
C[C@@H](Oc1ccc2c(-c3ccc(F)cc3Cl)cc(=O)oc2c1)C(=O)Nc1cccc(C(=O)O)c1 [Compound 139, 3-[[(2R)-2-[4-(2-chloro-4-fluoro-phenyl)-2-oxo-chromen-7-yl]oxypropanoyl]amino]benzoic acid]	50 to 500	< 20
CNC(=O)C[C@H]1CCCN(C(=O)[C@@H](C)Oc2ccc3c(-c4ccc(F)cc4Cl)cc(=O)oc3c2)C1 [Compound 128, 2-[(3R)-1-[(2R)-2-[4-(2-chloro-4-fluoro-phenyl)-2-oxo-chromen-7-yl]oxypropanoyl]-3-piperidyl]-N-methyl-acetamide]	< 10	< 20

Continued, values first:

IC50 [1] [nM]	IC50 [2] [nM]	Structure (SMILES)
< 10	< 20	Cc1ccccc1-c1cc(=O)oc2cc(OC(C)C(=O)NC3CC3)ccc12 (stereo not drawn) [Compound 25, N-cyclopropyl-2-[4-(o-tolyl)-2-oxo-chromen-7-yl]oxy-propanamide]
< 10	20 to 100	CC(Oc1ccc2c(-c3ccc(F)cc3Cl)cc(=O)oc2c1)C(=O)N1CCCC(S(N)(=O)=O)C1 (stereo not drawn) [Compound 69, 1-[2-[4-(2-chloro-4-fluoro-phenyl)-2-oxo-chromen-7-yl]oxypropanoyl]piperidine-3-sulfonamide]
< 10	20 to 100	CNC(=O)[C@H]1CCCN(C(=O)[C@@H](C)Oc2ccc3c(-c4ccc(F)cc4Cl)cc(=O)oc3c2)C1 [Compound 122]
< 10	20 to 100	CC(Oc1ccc2c(-c3ccccc3Br)cc(=O)oc2c1)C(=O)N(C)C (stereo not drawn) [Compound 89, 2-[4-(2-bromophenyl)-2-oxo-chromen-7-yl]oxy-N,N-dimethyl-propanamide]
< 10	< 20	Cc1ccccc1-c1cc(=O)oc2cc(OC(C)C(=O)N3CCCCC3)ccc12 (stereo not drawn) [Compound 1, 7-[1-methyl-2-oxo-2-(1-piperidyl)ethoxy]-4-(o-tolyl)chromen-2-one]
< 10	< 20	C=CC(=O)N[C@H]1CCCN(C(=O)[C@@H](C)Oc2ccc3c(-c4ccc(F)cc4Cl)cc(=O)oc3c2)C1 [Compound 165, N-[(3S)-1-[(2R)-2-[4-(2-chloro-4-fluoro-phenyl)-2-oxo-chromen-7-yl]oxypropanoyl]-3-piperidyl]prop-2-enamide]
< 10	20 to 100	CCOC(=O)C[C@H]1CCCN(C(=O)[C@@H](C)Oc2ccc3c(-c4sccc4C)cc(=O)oc3c2)C1 [Compound 180, ethyl 2-[(3R)-1-[(2R)-2-[4-(3-methyl-2-thienyl)-2-oxo-chromen-7-yl]oxypropanoyl]-3-piperidyl]acetate]
< 10	20 to 100	C[C@@H](Oc1ccc2c(-c3ccc(F)cc3Cl)cc(=O)oc2c1)C(=O)N1CC[C@H](CC(=O)O)C1 [Compound 145, 2-[(3R)-1-[(2R)-2-[4-(2-chloro-4-fluoro-phenyl)-2-oxo-chromen-7-yl]oxypropanoyl]pyrrolidin-3-yl]acetic acid]
< 10	< 20	CC(Oc1ccc2c(-c3ccccc3Cl)cc(=O)oc2c1)C(=O)NC1CC1 (stereo not drawn) [Compound 26, 2-[4-(2-chlorophenyl)-2-oxo-chromen-7-yl]oxy-N-cyclopropyl-propanamide]
< 10	20 to 100	CC(Oc1ccc2c(-c3ccccc3Cl)cc(=O)oc2c1)C(=O)N(C)C (stereo not drawn) [Compound 93, 2-[4-(2-chlorophenyl)-2-oxo-chromen-7-yl]oxy-N,N-dimethyl-propanamide]
< 10	< 20	C=CC(=O)N1CCN(C(=O)[C@@H](C)Oc2ccc3c(-c4ccc(F)cc4Cl)cc(=O)oc3c2)CC1 [Compound 164, 4-(2-chloro-4-fluoro-phenyl)-7-[(1R)-1-methyl-2-oxo-2-(4-prop-2-enoylpiperazin-1-yl)ethoxy]chromen-2-one]

From patent US11111238B2, “Coumarin derivatives, processes for their preparation and uses thereof for the treatment of cancer” (Lead Discovery Center GmbH, priority 2017, dated 2021)
